Test results reported in patent US11897848B2, “Crystalline forms of ozanimod and processes for preparation thereof” (RECEPTOS LLC, priority 2016, dated 2024).
Converted amounts (≈) assume the structure as drawn.

Columns and labels:
Type in all cases: physicochemical
[1] = Hygroscopicity assessment by dynamic vapor sorption (DVS); details: for Weight Gain under 80% RH: DVS, 25° C.; for Hygroscopicity according to the criteria of hygroscopicity: based on weight gain under 80% RH
Description: Dynamic Vapor Sorption (DVS) is measured via an SMS (Surface Measurement Systems Ltd.) intrinsic DVS. Typical Parameters for DVS test are as follows: • Temperature: 25° C. • Gas and flow rate: N2, 200 mL/min • dm/dt: 0.002%/min • RH range: 0% RH to 95% RH
Dynamic vapor sorption (DVS) was applied to test hygroscopicity of Form CS9 with about 10 mg of samples. The DVS plot was substantially as depicted in FIG. 14.
Dynamic vapor sorption (DVS) was applied to test hygroscopicity of Form CS10 with about 10 mg of samples. The DVS plot is substantially as depicted in FIG. 15.
Dynamic vapor sorption (DVS) was applied to test hygroscopicity of Form CS11 with about 10 mg of samples. The DVS plot is substantially as depicted in FIG. 16.

[2] = Stability assessment in chamber with controlled temperature and relative humidity (XRPD, HPLC); details: for Stability (verdict in words): after storage for 2 weeks
Description: Sample of Form CS10 was placed in chamber with controlled temperature and relative humidity at 40° C./75% RH for 2 weeks, and then the solids were sampled for XRPD test. The XRPD pattern overlay was substantially as depicted in FIG. 23 (from top to bottom: XRPD pattern of ozanimod Form CS10 before and after being stored under 40° C./75% RH for 2 weeks).
Two samples of Form CS11 of ozanimod were placed in chamber with controlled temperature and relative humidity at 25° C./60% RH and 40° C./75% RH for 2 weeks. XRPD and HPLC were used to test the crystalline form and chemical purity. The XRPD overlay pattern was substantially as depicted in FIG. 24 (from top to bottom: XRPD pattern of ozanimod Form CS11 before and after being stored under 25° C./60% RH and 40° C./75% RH for 2 weeks).

[3] = Particle size distribution test (laser particle size analyzer, wet process); details: for MV (average particle size calculated by volume): dispersion medium Isopar G; for D10 / D50 / D90: volume distribution
Description: The particle size distribution test in the present disclosure is acquired by the S3500 laser particle size analyzer of Microtrac. Microtrac S3500 is equipped with the SDC (Sample Delivery Controller). The test is carried out by wet process, and the dispersion medium is Isopar G The parameters are as follow:
Certain amount of samples of Form CS9, Form CS10 and Form CS11 of ozanimod were taken for particle size distribution test.
The abbreviations used in the invention are explained as follows: • Mv: Average particle size calculated by volume. • D10: particle size which accounts for 10% of the particle size distribution (volume distribution). • D50: particle size which accounts for 50% of the particle size distribution (volume distribution), also known as the median diameter. • D90: particle size which accounts for 90% of the particle size distribution (volume distribution).

[4] = Solubility assessment in H2O, saturated solution measured by HPLC
Description: Form CS9 of ozanimod was suspended into H2O to obtain saturated solution. After being equilibrated for 1 h, 4 h and 24 h, concentrations of the saturated solutions were measured by HPLC.

| Weight Gain under 80% RH [1] [%] | Hygroscopicity according to the criteria of hygroscopicity [1] | Crystalline form change by XRPD ([2]; 25° C./60% RH for 2 weeks) | Crystalline form change by XRPD ([2]; 40° C./75% RH for 2 weeks) | Stability (verdict in words) [2] | MV (average particle size calculated by volume) [3] [μm] | D10 [3] [μm] | D50 [3] [μm] | D90 [3] [μm] | Solubility in water (verdict in words) [4] | solubility at 1 h ([4]; water, thermodynamic from solid, equilibrated for 1 h) [µg/mL] | solubility at 4 h ([4]; water, thermodynamic from solid, equilibrated for 4 h) [µg/mL] | SMILES | Chemical purity change by HPLC ([2]; 25° C./60% RH for 2 weeks) | Chemical purity change by HPLC ([2]; 40° C./75% RH for 2 weeks) |
| --- | --- | --- | --- | --- | --- | --- | --- | --- | --- | --- | --- | --- | --- | --- |
| 0.57 | slightly hygroscopic | No form change | No form change | good stability | 137.7 | 27.13 | 110.4 | 286.6 |  |  |  | CC(C)Oc1ccc(-c2nc(-c3cccc4c3CC[C@@H]4NCCO)no2)cc1C#N [Form CS11, ozanimod] | No form change and obvious purity decrease | No form change and obvious purity decrease |
| 2.88 | hygroscopic |  |  |  | 339.9 | 50.97 | 284.3 | 728.7 | good solubility in water | 470 (≈ 1160 µM) | 360 (≈ 890 µM) | CC(C)Oc1ccc(-c2nc(-c3cccc4c3CC[C@@H]4NCCO)no2)cc1C#N [Form CS9, ozanimod] |  |  |
| 1.02 | slightly hygroscopic |  | No form change | good stability | 317.2 | 65.87 | 254.8 | 669.0 |  |  |  | CC(C)Oc1ccc(-c2nc(-c3cccc4c3CC[C@@H]4NCCO)no2)cc1C#N [Form CS10, ozanimod] |  |  |
